Results from US20180236105A1, “METHODS FOR TREATING NEURODEGENERATIVE DISEASES USING GENE THERAPY TO DELAY DISEASE ONSET AND PROGRESSION WHILE PROVIDING COGNITIVE PROTECTION” (UNIVERSITY OF IOWA RESEARCH FOUNDATION, priority 2015, published 2018).

Key:
[1] = test system: Cln2−/− mouse embryo fibroblast cells; assay: caTPP1 neutralization antibody assay (NAbs in dog CSF/serum); format: cell-based
Description: To assess neutralizing Abs (Nabs) in CSF, Cln2−/− mouse embryo fibroblast cells were used. Sixteen hours before the assay, 1.0×10^5 cells/well were plated onto 24 wells plate the day before, and dog CSF was heat inactivated at 56° C. for 30 minutes, diluted 1:10, and then pre-incubated with 1.75 nM of TPP1 at 37° C. for one hour. The mixture was applied to cells for three hours at 37° C. after which the cells were washed with 37° C. HBSS (Ca^2+ and Mg^2+) and then homogenized in 100 μl of ice cold homogenization buffer-0.1% TritonX-100 in normal saline with complete protease inhibitor cocktail (Roche, Mannheim, Germany). Insoluble material was removed by centrifugation at 21×10^3 rcf at 4° C. for 10 minutes and TPP1 activity detected as described above. The results were calculated as percentage of activity obtained from CSF collected prior to vector administration.

[2] = test system: CLN2−/− dogs; assay: Cerebrospinal fluid TPP1 enzyme activity assay; format: in vivo, dog; details: for CSF TPP1 activity after introduction of MMF: with cyclosporine and rAAV.caTPP1
Source text: Long-haired miniature Dachshunds were bred and housed at the University of Missouri in facilities overseen by the Office of Animal Resources (OAR). TPP1-null animals were generated from heterozygous breeding (Awano, 2006). All puppies were genotyped by PCR. In addition to the standard care provided by the OAR, the dogs were socialized on a daily basis throughout the study. All procedures involving dogs were reviewed and approved by the University of Missouri Animal Care and Use Committee and conformed to the National Institutes of Health Guide for the Care and Use of Laboratory Animals. Intraventricular infusions were performed over 25 minutes using the Brainsight™ neuronavigation system equipped with a 26 gauge 12 cm needle. Cyclosporine 10 mg/kg twice daily by mouth was administered to all of the dogs in this study starting one to two weeks prior to the gene therapy vector administration. The dose was gradually tapered after 2 months to once daily, which was continued for the duration of the study. A 10-20 mg/kg daily dose by mouth of mycophenolate mofetil (MMF) was instituted, as indicated in the results, and tapered after 2 to several months depending on tolerability.
TPP1 activity was assayed via a modification of previously described methods (Chang et al., 2008; Tian et al., 2006). Samples were homogenized in 300 μl ice-cold homogenization buffer (0.1% Triton X-100 in normal saline with complete protease inhibitor cocktail, Roche, Mannheim, Germany). Insoluble material was removed by centrifugation at 21×10^3 rcf at 4° C.×15 minutes, and protein quantified by DC Protein Assay (Biorad, Hercules, Calif.). […] Plates were read in a Safire 2 microplate reader (Tecan., Mannedorf, Switzerland) at 37° C. using the 460-nm emission filter. […]
Samples were concentrated 3.5-fold using Amicon Ultra-0.5 Centrifugal filter (Ultracel-10K. Millipore Corporation) at 21×10^3 rcf for 5 minutes at 4° C. Activated TPP1 was quantified as in tissue samples.

[3] = test system: dog disease model; details: cited from earlier work
[4] = MMF 5 days prior to rAAV.caTPP1 delivery, DC018

anti-TPP1 antibodies [1, 4] | anti-TPP1 Ab titers ([1]; MMF by 33 days post-vector, with cyclosporine and rAAV.caTPP1) | CSF TPP1 activity [2, 4] | CSF TPP1 activity after introduction of MMF ([2]; MMF by 33 days post-vector, DC015, DC016) | Molecule | anti-TPP1 immune responses ([1]; MMF at the time of or before AAV delivery) | CSF TPP1 activity after introduction of MMF ([2]; MMF from 44 days post-vector, DC013, DC014) | anaphylactic reactions ([3]; bolus infusion) | immune responses to recombinant protein ([3]; infused into the lumbar subarachnoid space or lateral ventricle)
did not appear | reduction in anti-TPP1 Ab titers | robust and sustained | increase in CSF TPP1 activity | COc1c(C)c2c(c(O)c1C/C=C(\C)CCC(=O)OCCN1CCOCC1)C(=O)OC2 [MMF, mycophenolate mofetil] | reduced, inhibited or dramatically delayed | did not result in a recovery of TPP1 activity |  | 
 |  |  |  | recombinant human TPP1: recombinant human TPP1 infused into the lumbar subarachnoid space or lateral ventricle (Vuillemenot et al., 2015) (protein, UniProt O14773 196-563, looked up) Tripeptidyl-peptidase 1: LHLGVTPSVIRKRYNLTSQDVGSGTSNNSQACAQFLEQYFHDSDLAQFMRLFGGNFAHQASVARVVGQQGRGRAGIEASLDVQYLMSAGANISTWVYSSPGRHEGQEPFLQWLMLLSNESALPHVHTVSYGDDEDSLSSAYIQRVNTELMKAAARGLTLLFASGDSGAGCWSVSGRHQFRPTFPASSPYVTTVGGTSFQEPFLITNEIVDYISGGGFSNVFPRPSYQEEAVTKFLSSSPHLPPSSYFNASGRAYPDVAALSDGYWVVSNRVPIPWVSGTSASTPVFGGILSLINEHRILSGRPPLGFLNPRLYQQHGAGLFDVTRGCHESCLDEEVEGQGFCSGPGWDPVTGWGTPNFPALLKTLLNP |  |  | Anaphylactic reactions were noted | robust anti-TPP1 responses
